Data on 1 molecule can be found in PMC10892536, “Establishment and Validation of a Transdermal Drug Delivery System for the Anti-Depressant Drug Citalopram Hydrobromide” (Molecules, 2024).

What is called Cmax is the maximum level reached in the sampled fluid or tissue. Broadly, the MRT is the average time that molecules of a dose stay in the body. As a reminder, the Tmax is the time at which the peak concentration occurs.

Molecules are shown by their SMILES. Where a name gives a salt, the structure may show the parent alone.

This data set can be described thus: In vivo pharmacokinetic study in rabbits. To be noted: oral gavage, n = 6. As to the method: CTH in the samples was quantified using a CoM 6000 HPLC system (CoMetro Technology, South Plainfield, NJ, USA) with a Comatex C18-AB column (250 × 4.6 mm, 5 μm; 115 Corp, Plainfield, NJ, USA) at 238 nm. The mobile phase was 0.1 mol/L acetonitrile, 0.1 mol/L ammonium acetate, and 0.01 mol/L heptane sodium sulfonate at a ratio of 5:5:1 (v/v). The flow rate was 1.0 mL/min, and the column temperature was 25 °C. All sample solutions were degassed and the injection volume was maintained at 20 μL [44, 53]. The particular application detail on the CoM 6000 HPLC system referred to a previous introduction in our laboratory.
The rabbits were assigned to one of the following three groups: A, B, or C. The abdominal hair of the rabbits in groups B and C was shaved off with an electric hair remover, and after cleaning the skin with normal saline, the optimized TDDS was applied to the abdomens of […] in group B, and blank patches were applied to the abdomens of rabbits in group C. Group A was administered CTH by oral gavage. The oral gavage procedure involved fixing the rabbits with an animal fixator and placing a special mouth expander with a rope attached to their mouth. An elastic rubber catheter was inserted through a small round hole in the mouth expander and pushed into the esophagus along the posterior pharyngeal wall. A solution consistent with the TDDS concentration was added. After gastric perfusion, the catheter and mouth opener were removed. Next, 1 mL aliquots of blood were collected from the marginal auricular vein of the experimental animals at different time intervals (1, 2, 4, 7, 12, and 24 h), placed in heparinized tubes, and centrifuged at 1500× g for 10 min. The resulting plasma supernatant was stored at −70 °C until further analysis. HPLC analyses were carried out by transferring 200 μL of the supernatant to a 1.5 mL polyethylene centrifuge tube. The tubes were then mixed with 300 μL acetonitrile, centrifuged at 2500× g for 10 min, and filtered through a 0.22 μm membrane.
The pharmacokinetic parameters of the conventional oral and sustained-release transdermal preparations were analyzed, including the maximum plasma concentration of the drug (Cmax), the time to reach the Cmax (Tmax), the mean residence time (MRT), and the area under the plasma concentration–time curve from time 0 to t (AUC(0-t)). Two-tailed Student’s t-tests were performed for the Cmax and AUC(0-t) analyses, and a non-parametric test was performed for the Tmax analysis. The AUC(0-t) was calculated using the trapezoidal rule.

With `CN(C)CCCC1(c2ccc(F)cc2)OCc2cc(C#N)ccc21` (stereo not shown) [CTH, citalopram hydrobromide], the “AUC(0-t)” value amounted to 8460.37 ± 996.43 ng/h/mL. Further, for the setting “rabbit, plasma”, the concentration peaked (Cmax) at 4900 ± 396 ng/mL, the MRT stood at 2.4 ± 0.25 h and the Tmax was 1 h.
